Results as given in patent US20090100532A1, “TRANSGENIC MICE EXPRESSING HYPERSENSITIVE NICOTINIC RECEPTORS” (CALIFORNIA INSTITUTE OF TECHNOLOGY, priority 2007, published 2009).
Several values for one entry are separate records, joined by “and”; a condition that tells them apart may be missing. Equal values may be shown once. Read-outs that look alike come from different tables or passages of the source.

What was measured:
[1] = target: tonically active α6^L9′S channels in VTA DA neurons (Mus musculus, UniProt Q9ERK7+Q9R0W9, L280S); format: cell-based
[2] = system: N2a cells; experiment: TIRF imaging of actin-containing membrane protrusions in N2a cells; format: cell-based, mouse
Experimental: TIRF Microscopy. N2a cells cultured in glass-bottomed, polyethylenimine-coated imaging dishes were transfected with cDNA mixtures as described above. Cells, superfused with the same imaging solution used for confocal microscopy, were imaged 18 to 24 h after transfection to minimize overexpression artifacts. TIRF images were obtained with an inverted microscope (Olympus IX71; Olympus America, Inc., Center Valley, Pa.) equipped with a 488-nm air-cooled argon laser (P/N IMA111040ALS; Melles Griot, Carlsbad, Calif.). Laser output was controlled with a UNIBLITZ shutter system and drive unit (P/N VMM-D1; Vincent Associates, Rochester, N.Y.) equipped with a Mitutoyo (Mitutoyo America, City of Industry, CA) micrometer to control TIRF evanescent field illumination. TIRF imaging was carried out with an Olympus PlanApo 100×1.45 NA oil objective, and images were captured with a 16-bit resolution Photometrics Cascade charge-coupled device camera (Photometrics, Tucson, Ariz.) controlled by SlideBook 4.0 imaging software (Intelligent Imaging Innovations, Santa Monica, Calif.).

[3] = system: VTA DA neurons
[4] = system: α6^L9′S mice; conditions: mouse, in vivo
Experimental: (§1) Locomotor Activity. Mice used to study locomotion were eight to sixteen weeks old by the beginning of an experiment, and were back-crossed to C57BL/6 at least three times. […] Mouse horizontal locomotor activity was measured with an infrared photobeam activity cage system (San Diego Instruments; San Diego, Calif.). Ambulation events were recorded when two contiguous photobeams were broken in succession. Acute locomotor activity in response to nicotinic ligands or other agents was studied by recording ambulation events during four 15 sec intervals per minute for a designated number of minutes. For most experiments, groups of eight mice were placed in the activity cages (18×28 cm) and their baseline level of activity was recorded for eight minutes. Mice were removed from their cage, injected (100 μl per 25 g body mass), and returned to the cage within 15 sec. […] For generation of locomotor activity concentration-response relationship profiles, a group of mice was administered saline and, after five to eight days off, each successive dose of drug. […] For 48 h home cage monitoring, mice were isolated in their own cage and habituated to the test room and cage for 24 h. Following this, locomotor activity was recorded in 15 min intervals for 48 h.

[5] = target: hypersensitive nicotinic receptors in α6L9′S VTA DA neurons (Mus musculus, UniProt Q9ERK7+Q9R0W9, L280S); format: cell-based
[6] = system: LC neurons (α6* nAChRs); format: cell-based, mouse
[7] = system: α4Yβ2 receptors; format: cell-based, mouse
[8] = target: T1, α3β4 receptors (UniProt P12392+P32297); experiment: Two-electrode voltage clamp, X. laevis oocytes, α3β4; format: cell-based
T1 construct: expressed in transfected cells; host or cells: Xenopus laevis oocytes injected with cRNA
Experimental: (§2) Two-Electrode Voltage-Clamp Electrophysiology. Stage V to VI X. laevis oocytes were isolated as described previously (Quick and Lester, Ion Channels of Excitable Cells, Narahashi T ed., pp 261-279, 1994). Stock RNAs were diluted into diethyl pyrocarbonatetreated water and injected 1 day after isolation. RNA was injected in a final volume of 50 nl per oocyte using a digital microdispenser (Drummond Scientific, Broomall, Pa.). After injection, oocytes were incubated in ND-96 solution (96 mM NaCl, 2 mM KCl, 1 mM CaCl2, 1 mM MgCl2, and 5 mM HEPES/NaOH, pH 7.6) supplemented with 50 μg/ml gentamicin and 2.5 mM sodium pyruvate. After 1 to 4 days for nAChR expression, oocytes were used for recording or confocal microscopy.
(§3) Agonist-activated nicotinic receptor responses were measured by two-electrode voltage-clamp recording using a GeneClamp 500 (Molecular Devices, Sunnyvale, Calif.) voltage clamp. Electrodes were constructed from Kwik-Fil borosilicate glass capillary tubes (1B150F-4; WPI, Sarasota, Fla.) using a programmable microelectrode puller (P-87; Sutter Instrument Company, Novato, Calif.). The electrodes had tip resistances of 0.8 to 2.0 MΩ after filling with 3 M KCl. […]

[9] = target: T2, α3β4β3 receptors (UniProt P12392+P32297); experiment: Two-electrode voltage clamp, X. laevis oocytes, α3β4β3; format: cell-based
T2 construct: expressed in transfected cells; host or cells: Xenopus laevis oocytes injected with cRNA
Experimental: as §2, §3

[10] = target: T3, α6* nAChRs (Mus musculus, UniProt Q9ERK7+Q9R0W9, L280S); experiment: biochemical; format: biochemical
T3 construct: from tissue
Experimental: (§4) Neurotransmitter Release from Striatal Synaptosomes. After a mouse was sacrificed by cervical dislocation, its brain was removed and placed immediately on an ice-cold platform and brain regions were dissected. Tissues from each mouse were homogenized in 0.5 ml of ice-cold 0.32 M sucrose buffered with 5 mM HEPES, pH 7.5. A crude synaptosomal pellet was prepared by centrifugation at 12,000 g for 20 min. The pellets were resuspended in “uptake buffer”: 128 mM NaCl, 2.4 mM KCl, 3.2 mM CaCl2, 1.2 mM KH2PO4, 1.2 mM MgSO4, 25 mM HEPES, pH 7.5, 10 mM glucose. For DA uptake, buffer was supplemented with 1 mM ascorbic acid and 0.01 mM pargyline, whereas for GABA uptake, buffer was supplemented with 1 mM aminooxyacetic acid. For [^3H]GABA uptake, synaptosomes were incubated for 10 min at 37° C. […] For DA uptake, synaptosomes were incubated at 37° C. in uptake buffer for 10 min before addition of 100 nM [^3H]dopamine (1 μCi for every 0.2 ml of synaptosomes), and the suspension was incubated for an additional 5 min.
(§5) All experiments were conducted at room temperature using methods described previously (Nashmi et al., 2007; Salminen et al., 2007) with modifications for collection into 96-well plates. In brief, aliquots of synaptosomes (80 μl) were distributed onto filters and perfused with buffer (uptake buffer containing 0.1% bovine serum albumin and 1 μM atropine with 1 μM nomifensine (for DA release) or 0.1 μM NNC-711 [1-(2-(((diphenylmethylene)amino)oxy)ethyl)-1,2,5,6-tetrahydro-3-pyridinecarboxylic acid hydrochloride]) (for GABA release) at 0.7 ml/min for 10 min, or buffer for 5 min followed by buffer with 50 nM αCtxMII. […] Fractions (−0.1 ml) were collected for 4 min into 96-well plates every 10 sec starting from 1 min before stimulation, using a Gilson FC204 fraction collector with a multicolumn adapter (Gilson, Inc.; Middleton, Wis.). Radioactivity was determined by scintillation counting using a 1450 MicroBeta Trilux scintillation counter (Perkin Elmer Life Sciences-Wallac Oy; Turku, Finland) after addition of 0.15 ml Optiphase ‘SuperMix’ scintillation cocktail. Instrument efficiency was 40%.
(§6) Data were analyzed using SigmaPlot 5.0 for DOS. Perfusion data were plotted as counts per minute versus fraction number. Fractions collected before and after the peak were used to calculate baseline as a single exponential decay. The calculated baseline was subtracted from the experimental data. Fractions that exceeded baseline by 10% or more were sunmmed to give total released cpm and then normalized to baseline to give units of release [(cpm-baseline)/baseline]. Agonist dose response data were fit to the Hill equation.

[11] = target: T4, α6* nAChRs (Mus musculus, UniProt Q9ERK7+Q9R0W9); experiment: biochemical; format: biochemical
T4 construct: from tissue
Experimental: as §4, §5, §6

[12] = target: T5, α4β2* (non-α6) nAChRs (Mus musculus, UniProt O70174+Q9ERK7); experiment: biochemical; format: biochemical; conditions: for EC50: read-out: EC50 (±SEM), MII-resistant DA release
T5 construct: from tissue; host or cells: striatal / olfactory tubercle synaptosomes of WT and α6L9′S mice
Experimental: as §4, §5, §6

[13] = system: nAChRs; format: biochemical, mouse; conditions: for EC50: read-out: EC50 (±SEM), Total DA release
Experimental: as §4, §5, §6

[14] = system: striatal (ST and OT combined) synaptosomes
Experimental: as §4, §5, §6

[15] = system: WT mice; conditions: mouse, in vivo
Experimental: as §1

T5 sequence (Q9ERK7 26-501): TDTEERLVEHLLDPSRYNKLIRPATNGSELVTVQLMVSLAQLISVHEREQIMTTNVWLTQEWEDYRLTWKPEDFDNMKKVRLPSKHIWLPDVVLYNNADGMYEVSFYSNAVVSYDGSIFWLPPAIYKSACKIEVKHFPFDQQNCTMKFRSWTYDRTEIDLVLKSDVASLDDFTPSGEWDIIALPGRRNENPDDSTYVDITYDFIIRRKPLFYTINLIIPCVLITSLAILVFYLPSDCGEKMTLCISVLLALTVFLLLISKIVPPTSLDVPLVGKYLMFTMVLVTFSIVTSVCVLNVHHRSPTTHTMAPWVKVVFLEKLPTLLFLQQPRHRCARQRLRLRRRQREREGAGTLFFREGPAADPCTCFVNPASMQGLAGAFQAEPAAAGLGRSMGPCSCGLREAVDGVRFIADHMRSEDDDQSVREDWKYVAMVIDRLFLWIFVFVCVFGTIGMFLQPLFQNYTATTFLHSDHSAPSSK
T5 sequence (O70174 31-629): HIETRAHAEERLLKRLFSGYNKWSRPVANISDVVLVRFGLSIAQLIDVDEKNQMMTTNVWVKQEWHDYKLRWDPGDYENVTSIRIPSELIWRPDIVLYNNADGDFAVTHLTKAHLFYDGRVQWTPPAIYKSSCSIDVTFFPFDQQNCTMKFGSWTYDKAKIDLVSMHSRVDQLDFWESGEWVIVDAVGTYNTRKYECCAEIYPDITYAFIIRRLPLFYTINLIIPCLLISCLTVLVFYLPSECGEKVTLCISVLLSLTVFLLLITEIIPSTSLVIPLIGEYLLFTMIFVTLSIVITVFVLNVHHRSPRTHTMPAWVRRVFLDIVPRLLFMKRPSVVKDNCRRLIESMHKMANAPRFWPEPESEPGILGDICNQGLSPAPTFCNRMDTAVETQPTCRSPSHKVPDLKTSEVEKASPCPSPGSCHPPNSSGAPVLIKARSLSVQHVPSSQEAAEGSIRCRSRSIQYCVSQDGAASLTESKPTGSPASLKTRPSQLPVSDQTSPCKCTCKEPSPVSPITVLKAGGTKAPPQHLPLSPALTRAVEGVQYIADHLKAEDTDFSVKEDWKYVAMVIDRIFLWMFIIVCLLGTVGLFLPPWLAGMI
T3 sequence (Q9ERK7 26-501, stated change not applied): as the sequence (Q9ERK7 26-501) above
T3 sequence (Q8BMN3 31-464, further chain): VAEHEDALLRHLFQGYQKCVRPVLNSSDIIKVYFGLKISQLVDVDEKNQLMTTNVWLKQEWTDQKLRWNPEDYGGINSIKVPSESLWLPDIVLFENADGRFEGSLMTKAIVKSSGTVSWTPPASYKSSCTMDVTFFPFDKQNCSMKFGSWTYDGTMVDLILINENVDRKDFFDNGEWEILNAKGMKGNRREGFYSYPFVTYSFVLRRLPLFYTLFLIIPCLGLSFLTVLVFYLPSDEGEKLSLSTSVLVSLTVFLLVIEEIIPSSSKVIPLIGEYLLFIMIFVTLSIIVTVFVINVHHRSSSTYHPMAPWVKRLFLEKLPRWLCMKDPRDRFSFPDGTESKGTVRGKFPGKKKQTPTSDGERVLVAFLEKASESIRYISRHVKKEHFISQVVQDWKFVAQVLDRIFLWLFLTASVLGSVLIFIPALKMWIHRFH
T3 sequence (Q9R0W9 31-494 L280S): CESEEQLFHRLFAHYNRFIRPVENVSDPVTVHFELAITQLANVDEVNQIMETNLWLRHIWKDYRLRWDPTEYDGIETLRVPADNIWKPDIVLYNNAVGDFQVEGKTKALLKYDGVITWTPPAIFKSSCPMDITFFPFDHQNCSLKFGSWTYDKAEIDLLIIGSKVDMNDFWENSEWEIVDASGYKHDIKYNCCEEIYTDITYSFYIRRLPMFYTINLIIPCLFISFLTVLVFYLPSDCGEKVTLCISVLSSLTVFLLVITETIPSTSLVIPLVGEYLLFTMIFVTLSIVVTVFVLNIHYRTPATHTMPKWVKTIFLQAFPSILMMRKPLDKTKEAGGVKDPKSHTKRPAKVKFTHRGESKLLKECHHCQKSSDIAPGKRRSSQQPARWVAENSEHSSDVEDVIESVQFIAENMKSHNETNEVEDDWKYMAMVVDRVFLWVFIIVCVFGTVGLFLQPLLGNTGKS
Sequence of hypersensitive nicotinic receptors in α6L9′S VTA DA neurons (Q9ERK7 whole entry, looked up, stated change not applied): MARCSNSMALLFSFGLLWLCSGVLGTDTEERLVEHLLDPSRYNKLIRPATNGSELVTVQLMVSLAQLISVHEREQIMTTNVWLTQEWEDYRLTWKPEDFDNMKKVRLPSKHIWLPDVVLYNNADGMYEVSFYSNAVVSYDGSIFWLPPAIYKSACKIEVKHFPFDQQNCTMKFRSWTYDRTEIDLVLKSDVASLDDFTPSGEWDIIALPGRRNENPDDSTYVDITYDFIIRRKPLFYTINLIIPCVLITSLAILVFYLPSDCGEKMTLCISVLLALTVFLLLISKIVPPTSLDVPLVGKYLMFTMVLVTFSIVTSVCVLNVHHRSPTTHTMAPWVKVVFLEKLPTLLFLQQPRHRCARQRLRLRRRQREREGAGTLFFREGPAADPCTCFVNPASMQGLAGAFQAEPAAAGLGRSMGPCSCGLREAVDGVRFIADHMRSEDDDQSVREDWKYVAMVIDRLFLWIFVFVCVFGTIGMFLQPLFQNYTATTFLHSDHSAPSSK
Sequence of hypersensitive nicotinic receptors in α6L9′S VTA DA neurons (Q9R0W9 whole entry, looked up, stated change not applied): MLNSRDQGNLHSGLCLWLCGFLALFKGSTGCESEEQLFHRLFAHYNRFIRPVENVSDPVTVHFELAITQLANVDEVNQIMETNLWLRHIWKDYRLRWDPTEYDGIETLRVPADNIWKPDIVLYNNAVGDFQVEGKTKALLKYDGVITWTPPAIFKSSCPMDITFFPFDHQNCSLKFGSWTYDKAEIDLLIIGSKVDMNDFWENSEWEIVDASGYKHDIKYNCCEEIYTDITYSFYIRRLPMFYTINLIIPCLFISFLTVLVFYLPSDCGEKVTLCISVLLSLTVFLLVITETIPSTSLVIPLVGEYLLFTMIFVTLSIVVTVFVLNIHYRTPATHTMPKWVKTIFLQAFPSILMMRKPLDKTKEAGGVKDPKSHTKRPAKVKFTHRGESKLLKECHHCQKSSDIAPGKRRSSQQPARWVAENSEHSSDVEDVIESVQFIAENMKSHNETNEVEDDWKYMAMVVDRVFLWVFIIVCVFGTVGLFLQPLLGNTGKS
Sequence of tonically active α6^L9′S channels in VTA DA neurons (Q9ERK7 whole entry, looked up, stated change not applied): as the sequence (Q9ERK7 whole entry, looked up, stated change not applied) above
Sequence of tonically active α6^L9′S channels in VTA DA neurons (Q9R0W9 whole entry, looked up, stated change not applied): as the sequence (Q9R0W9 whole entry, looked up, stated change not applied) above
T4 sequence (Q9R0W9 31-494): as the sequence (Q9R0W9 31-494 L280S) above, with S250L counted along it
T4 sequence (Q8BMN3 31-464, further chain): as the sequence (Q8BMN3 31-464, further chain) above
T4 sequence (Q9ERK7 26-501): as the sequence (Q9ERK7 26-501) above
T2 sequence (P32297 32-505): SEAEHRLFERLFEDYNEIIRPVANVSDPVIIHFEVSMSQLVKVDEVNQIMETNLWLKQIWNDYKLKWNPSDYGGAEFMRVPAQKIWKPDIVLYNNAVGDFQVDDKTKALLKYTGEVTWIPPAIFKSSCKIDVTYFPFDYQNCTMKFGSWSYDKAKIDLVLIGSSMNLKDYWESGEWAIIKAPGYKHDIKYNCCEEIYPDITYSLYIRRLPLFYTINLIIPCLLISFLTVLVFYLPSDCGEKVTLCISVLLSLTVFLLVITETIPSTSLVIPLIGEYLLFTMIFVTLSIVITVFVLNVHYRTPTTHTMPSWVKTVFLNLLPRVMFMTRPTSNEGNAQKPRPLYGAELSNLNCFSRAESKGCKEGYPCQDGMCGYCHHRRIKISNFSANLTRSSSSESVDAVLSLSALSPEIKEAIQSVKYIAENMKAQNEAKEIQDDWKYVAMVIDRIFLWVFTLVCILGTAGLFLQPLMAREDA
T2 sequence (P12392 21-495): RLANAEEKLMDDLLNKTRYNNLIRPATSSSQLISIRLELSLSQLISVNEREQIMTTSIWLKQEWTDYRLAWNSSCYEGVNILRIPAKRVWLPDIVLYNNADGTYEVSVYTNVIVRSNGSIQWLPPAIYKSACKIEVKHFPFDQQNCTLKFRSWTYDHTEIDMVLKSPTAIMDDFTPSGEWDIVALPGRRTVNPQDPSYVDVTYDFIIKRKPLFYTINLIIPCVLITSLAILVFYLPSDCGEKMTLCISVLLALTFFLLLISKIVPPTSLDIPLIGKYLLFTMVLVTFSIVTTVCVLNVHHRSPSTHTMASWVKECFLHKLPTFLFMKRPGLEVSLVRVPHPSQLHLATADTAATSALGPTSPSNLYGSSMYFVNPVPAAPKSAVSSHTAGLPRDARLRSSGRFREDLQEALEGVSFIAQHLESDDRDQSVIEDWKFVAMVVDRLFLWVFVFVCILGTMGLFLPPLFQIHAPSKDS
T2 sequence (Q8BMN3 31-464 partner): as the sequence (Q8BMN3 31-464, further chain) above
T1 sequence (P32297 32-505): as the sequence (P32297 32-505) above
T1 sequence (P12392 21-495): as the sequence (P12392 21-495) above

picrotoxin
effect on increased channel/membrane noise [1]: No effect

C/C1=C/C(=O)O[C@@H]2C[C@@H](CC[C@H](C)/C=C\CC1)O[C@@](O)([C@@H]1CSC(=O)N1)C2 [latrunculin B]
effect on actin-containing membrane protrusions [2]: destroyed

CCN1CCCC1CNC(=O)c1cc(S(N)(=O)=O)ccc1OC (stereo not drawn) [sulpiride]
baseline firing of VTA DA cells [3]: modestly increase baseline firing
effect on nicotine-induced increases in firing [3]: did not affect
effect of antagonist pre-injection on nicotine-stimulated locomotor response [4]: partially inhibited

N#Cc1cc2c(cc1[N+](=O)[O-])=NC(=O)C(=O)N=2 [CNQX, 6-cyano-7-nitroquinoxaline-2,3-dione]
block of whole-cell responses to 1 μM nicotine [5]: unaffected
effect on increased channel/membrane noise [1]: No effect

α-conotoxin MII [αCtxMII]
block of whole-cell responses to 1 μM nicotine [5]: > 90%
persistence of block after washout [5]: 30 min
effect on increased channel/membrane noise [1]: completely eliminated
inhibition of nicotine responses in LC neurons [6]: sensitive to αCtxMII

CC(=O)OCC[N+](C)(C)C [ACh, acetylcholine]
voltage-clamped responses [7]: 200-400 pA
EC50 [8]: 165000 ± 9000 nM
EC50 [9]: 230000 ± 22000 nM

CO[C@H]1CC=C2CCN3CCC4=C(CC(=O)OC4)[C@]23C1 [DHβE, dihydro-β-erythroidine]
block of whole-cell responses to 1 μM nicotine [5]: 100%
effect on increased channel/membrane noise [1]: completely eliminated

COc1cc2nc(N3CCN(C(=O)c4ccco4)CC3)nc(N)c2cc1OC [prazosin]
effect of antagonist pre-injection on nicotine-stimulated locomotor response [4]: no change was found

CNCC/C=C/c1cccnc1 [TC 2403]
%10 μM nic, MII-sensitive DA release [10]: 44.85% and 33.01%
Rmax (±SEM), MII-sensitive DA release [10]: 4.83 ± 0.15 and 3.43 ± 0.32
agonist character at the αCtxMII-sensitive receptor [10]: partial agonist
EC50 ([10]; read-out: EC50 (±SEM), MII-sensitive DA release): 190 nM and 100 nM
%10 μM nic, MII-sensitive DA release [11]: 28.83%
agonist character at α6β2* for DA release (vs. nicotine) [11]: no activity
Rmax (±SEM), MII-sensitive DA release ([11]; ST/OT, WT): 0.47 ± 0.2
EC50 ([11]; ST/OT, WT, read-out: EC50 (±SEM), MII-sensitive DA release): 60 ± 180 nM
%10 μM nic, MII-resistant DA release [12]: 81.78% and 81.48% and 90.64%
Rmax (±SEM), MII-resistant DA release [12]: 7.26 ± 0.29 and 9.3 ± 0.33
agonist character at α4β2 for DA release (vs. nicotine) [12]: full agonist (vs. nicotine)
Rmax (±SEM), MII-resistant DA release ([12]; ST/OT, WT): 12.32 ± 0.26
EC50 ([12]; ST/OT, WT): 2850 ± 350 nM
EC50 [12]: 3530 nM and 4030 nM
%10 μM nic, Total DA release [13]: 74.11% and 54.47% and 51.19%
Rmax (±SEM), Total DA release [13]: 10.72 ± 0.61 and 10.57 ± 0.74
Rmax (±SEM), Total DA release ([13]; ST/OT, WT): 12.37 ± 0.93
EC50 ([13]; ST/OT, WT): 2360 ± 560 nM
EC50 [13]: 700 nM and 820 nM
potency and efficacy for DA release, α6^L9′S relative to WT ([13]; striatal synaptosomes): slightly more potent and had equivalent efficacy
locomotor activity [4]: slight locomotor activation

[K+] [K^+]
GABA release stimulated by 20 mM K^+ [14]: 8.31 ± 0.34 and 8.24 ± 0.45 and 8.43 ± 0.50

CNC1(C)C2CCC(C2)C1(C)C (stereo not drawn) [mecamylamine]
effect of antagonist pre-injection on nicotine-stimulated locomotor response [4]: strong block of the locomotor response

c1cncc(C2CC3CCN2CC3)c1 (racemic) [TC 2429]
%10 μM nic, Total DA release [13]: 49.0% and 73.40% and 71.00%
Rmax (±SEM), Total DA release [13]: 8.68 ± 1.25 and 12.87 ± 0.37 and 11.86 ± 0.41
locomotor activity [4]: stimulated locomotor activity
locomotor suppression [15]: did not produce locomotor suppression

NC1=N[C@H](O)[C@H]2[C@H]3O[C@]4(O)O[C@@H]([C@@H](O)[C@@]2(N1)[C@@H]4O)[C@]3(O)CO [TTX, tetrodotoxin]
block of whole-cell responses to 1 μM nicotine [5]: unaffected
effect on increased channel/membrane noise [1]: No effect

COC(=O)[C@@H]1[C@H]2C[C@H]3c4[nH]c5ccccc5c4CCN3C[C@@H]2CC[C@@H]1O [yohimbine]
effect of antagonist pre-injection on nicotine-stimulated locomotor response [4]: no change was found

CCN1C[C@]2(COC(=O)c3ccccc3N3C(=O)C[C@H](C)C3=O)CC[C@H](OC)[C@@]34[C@@H]5C[C@H]6[C@H](OC)[C@@H]5[C@](O)(C[C@@H]6OC)[C@@](O)([C@@H](OC)[C@H]23)[C@@H]14 [MLA, methyllycaconitine]
block of whole-cell responses to 1 μM nicotine [5]: 0%
